Results as given in patent US20180318199A1, “Pharmaceutical Composition Having Anti-Aging Properties against High-Glucose” (TAIWAN LEADER BIOTECH CORP., priority 2017, published 2018).

Columns and labels:
[1] = tested on: HNDFs; experiment: SA-β-gal senescence assay in HG-induced HNDFs; assay type: cell-based, human; details: ANM 10 μM or RES + HG, 72 h
Experimental: Next, the protective effects of antcins on HG-induced HNDF senescence are examined. In FIG. 2B, cells were incubated with ANA (10 μM), ANH (10 μM) and ANM (10 μM) in the presence of HG (30 mM) for 72 h. Cellular senescence is determined by SA-β-gal activity. […] After cells are co-incubated with HG and antcins (ANA, ANH and ANM) for 72 h, senescence is measured by SA-β-gal assay.
Therefore, in order to examine whether the ROS inhibitory effect may be extended to suppress HG-induced senescence, HG-induced senescenece eliminated by ANM is examined. In FIG. 4B, HNDFs are incubated with ANM (10 μM) or NAC (100 μM) in the presence or absence of HG (30 mM) for 72 h. Cellular senescence is determined by SA-β-gal assay. […] As is shown, cells are co-incubated with HG and ANM or NAC for 72 h.
Senescence-associated β-galactosidase (SA-β-gal) activity is determined in formaldehyde-fixed histochemical staining kit according to the manufacturer's instructions (Cell Signaling Technology, Danvers, Calif.). Briefly, cells are grown in 6-well plates at a density of 5×10^4 cells/well, and incubated with HG or test samples for 48 h (HUVECs) or 72 h (HNDFs). After incubation, cells are stained with SA-β-gal staining solution at pH 6.0 overnight and then the development of blue staining is observed and photographed under a bright-field microscope (Motic Electric Group, Xiamen, P.R. China).

[2] = tested on: SIRT-1, SIRT-3 and SIRT-6; experiment: RT-PCR/Q-PCR of SIRT genes in HNDFs; assay type: cell-based, human; details: RES, 72 h, no HG
Text: As shown in the figures, to determine whether ANM regulates HNDF senescence through a SIRT-1-mediated pathway, expression levels of SIRT genes SIRT-1, SIRT-3 and SIRT-6 are is examined.
Total RNA is extracted and subjected to Q-PCR analysis to monitor SIRT-1, SIRT-3 and SIRT-6 expression. Relative mRNA levels are normalized by β-actin mRNA. Previous studies have shown that exposure of endothelial cells to HG rapidly decreases levels of expression of SIRT genes.
Total RNA is extracted from cultured HNDFs using Trizol Reagent (Thermo Fisher Scientific). Q-PCR analysis is performed using Applied Biosystems detection instruments and software. Forward and reverse primers (10 μM), and the working solution SYBR green, is used as a PCR master mix, under the following conditions: 96° C. for 3 minutes followed by 40 cycles at 96° C. for 1 minute, 50° C. for 30 seconds and 72° C. for 90 seconds. GAPDH is used as an internal standard to control for variability in amplification because of differences in starting mRNA concentrations. The copy number of each transcript is calculated as the relative copy number normalized by GAPDH copy number.

[3] = tested on: SIRT-1, SIRT-3, SIRT-6; experiment: Western blot of SIRT proteins and phos-SIRT-1 in HNDFs; assay type: cell-based, human; details: ANM or RES + HG, 72 h
Experimental: Total cell lysate is extracted and subjected to western blot analysis to monitor SIRT-1, SIRT-3, SIRT-6 protein levels.
The protein expression levels of SIRT-1, SIRT-6, p21^CIP1, SMP30, p53, FoxO and acetylation of p53 and FoxO1 are determined by western blot analysis.
To further understand the regulation of SIRT-1 by ANM, the effect of ANM on SIRT-1 activation and protein stability is examined under hyperglycemic conditions. In FIG. 7I, cells are incubated with JNK/SAPK or p38 MAPK inhibitors SP600125 (SP, 30 μM) and SB203580 (SB, 30 μM) in the presence of HG for 72 h. The protein expression levels of phos-SIRT-1 and SIRT-1 are determined by western blotting. Results are expressed as mean±S.E.M of three independent experiments. Statistical significance is set at ^ϕP<0.05 as compared to NG vs. HG and *P<0.05 as compared to HG vs. samples. Previous studies have shown that hyperphosphorylation of SIRT-1 at serine 47 (Ser47) is correlated with enhanced endothelial senescence. In addition, persistent activation of JNK1/2 by multiple factors including hyperglycemia induces extensive SIRT-1 proteasome degradation followed by phosphorylation at Ser47. […] Therefore, it is hypothesized that ANM-mediated suppression of JNK1/2 and p38 MAPK activation may have a functional role in the stability of SIRT-1 protein.
(§1) Cells are lysed by either RIPA lysis buffer or nuclear and cytoplasmic extraction reagents (Thermo Fisher Scientific). Protein concentrations are determined by Bio-Rad protein assay reagent (Bio-Rad Laboratories, Hercules, Calif.). Equal amounts of protein samples (60 μg) are separated by 7-12% SDS-PAGE and the separated proteins are transferred onto polyvinylidene […] (PVDC) membrane overnight. The transferred protein membranes are blocked with 5% non-fat dried milk for 30 min, followed by incubation with specific primary antibodies overnight, and either horseradish peroxidase-conjugated goat anti-rabbit or anti-mouse antibodies for 2 h. The blots are detected using VL Chemi-Smart 3000 (Viogene Biotek, Sunnyvale, Calif.) with the enhanced chemiluminescence (ECL) western blotting reagent (Millipore, Billerica, Mass.).

[4] = tested on: wild-type C. elegans; experiment: C. elegans lifespan assay; assay type: in vivo, Caenorhabditis elegans; details: ANM 10 μM or RES 438 μM vs control
Experimental: It has been well documented that high glucose levels decrease the life span of C. elegans by increasing ROS formation and advance glycation end-product modification of mitochondrial proteins. Therefore, it is further investigated whether ANM has a protective effect against hyperglycemia-induced oxidative stress as well as anti-aging effects. Worms are incubated with high glucose (50 mM) with or without ANM […], and controlled for life span evaluation. In FIG. 8B, effect of ANM on the life span of C. elegans under hyperglycemic condition is examined. Age synchronized L1 larvae are transfected to NGM plates which contain HG (50 mM) with or without ANM (10 μM) and worms are developed to adulthood. The survival rate is scored everyday and is expressed as a percentage of survival. […] Results are expressed as mean±S.E.M of three independent experiments. Statistical significance is set at ^ϕP<0.05 as compared to control vs. HG, *P<0.05 as compared to HG vs. HG+sample and ̂P<0.05 as compared to control vs. samples.
Control worms are treated with 0.01% DMSO. All worms are kept 20° C. to develop adulthood. After 6 days, worms are transferred to plates containing glucose are applicable. Surviving and dead animals are counted daily (starting from the first day of adulthood) until all worms had died. […] Worms suffering from internal hatch (a defect in egg-laying) and those that crawled off the NGM plate are not included in the life-span assay. During the reproductive period, adult worms are transferred to fresh NGM plates every day during the progeny production period and then every other day thereafter. Life span assay result is obtained from three independent assays.

[5] = tested on: HO-1 and NQO-1; experiment: Western blot of HO-1 and NQO-1 in HUVECs; assay type: cell-based, human; details: ANM 10 μM or RES 5 μM + HG
Experimental: The intracellular ROS level is quantified by utilizing DCFH-DA assay. […] However, treatment of HUVECs with ANM resulted reduced ROS levels (6.1-fold), compared with HUVECs in HG that are not treated with ANM. In addition, in FIG. 9G, western blot analysis is performed to determine the protein expression levels of HO-1 and NQO-1.
as §1

Oc1ccc(C=Cc2cc(O)cc(O)c2)cc1 [RES, resveratrol, reference compound]
SA-β-gal activity, SIRT-1 siRNA transfected cells [1]: remains partially elevated
SIRT-6 level (RT-PCR) [2]: remarkable increase
HG-induced SIRT-1 phosphorylation at Ser47 [3]: significantly attenuates
life span of C. elegans under normal condition [4]: highly comparable
HO-1 expression in HUVECs in HG [5]: significantly increase
